According to article PMC7023430, “4-Aminobenzoic Acid Derivatives: Converting Folate Precursor to Antimicrobial and Cytotoxic Agents” (Biomolecules, 2019):
Values after ≈ are worked out from the molar mass of the structure shown. Like-named read-outs stand apart in the source and are kept apart here.

Columns and labels:
[1] = tested on: Mycobacterium kansasii 235/80; assay: Antimycobacterial micromethod in Šula's medium, M. kansasii 235/80; type: cell-based
[2] = tested on: Pseudomonas aeruginosa ATCC 27853, CCM 3955; assay: Antibacterial microdilution broth method, P. aeruginosa; type: cell-based; conditions: Pseudomonas aeruginosa, P. aeruginosa
[3] = tested on: Candida tropicalis 156; assay: Antifungal microdilution broth method, C. tropicalis; type: cell-based
How it was run: (§1)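 MICs were scored by eye in duplicate runs, accepted when the two differed by no more than one twofold step. Medium was RPMI-1640 (L-glutamine, 2% glucose) buffered with MOPS at pH 7.0, with DMSO-dissolved compounds serially halved per modified EUCAST protocol.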

[4] = tested on: Lichtheimia corymbifera 272; assay: Antifungal microdilution broth method, L. corymbifera; type: cell-based
How it was run: as §1

[5] = tested on: ESBL-positive Klebsiella pneumoniae J 14368/08
[6] = tested on: M. kansasii 6509/96 (clinical isolate); assay: Antimycobacterial micromethod in Šula's medium, M. kansasii 6509/96; type: cell-based; conditions: Mycobacterium kansasii
[7] = tested on: Enterococcus faecalis ATCC 29212, CCM 4224; assay: Antibacterial microdilution broth method, E. faecalis; type: cell-based; conditions: Enterococcus faecalis
[8] = tested on: Trichophyton interdigitale 445; assay: Antifungal microdilution broth method, T. interdigitale; type: cell-based
How it was run: as §1

[9] = tested on: Escherichia coli ATCC 25922, CCM 3954; assay: Antibacterial microdilution broth method, E. coli; type: cell-based; conditions: Escherichia coli
[10] = tested on: Staphylococcus epidermidis H 6966/08; assay: Antibacterial microdilution broth method, S. epidermidis; type: cell-based; conditions: Staphylococcus epidermidis, H6966/08, S. epidermidis
[11] = tested on: Candida glabrata 20/I; assay: Antifungal microdilution broth method, C. glabrata; type: cell-based; conditions: Nakaseomyces glabratus
How it was run: as §1

[12] = tested on: Trichosporon asahii 1188; assay: Antifungal microdilution broth method, T. asahii; type: cell-based
How it was run: as §1

[13] = tested on: methicillin-resistant Staphylococcus aureus ATCC 43300, CCM 4750 (MRSA); assay: Antibacterial microdilution broth method, MRSA; type: cell-based; conditions: Staphylococcus aureus
[14] = tested on: Mycobacterium avium 330/88; assay: Antimycobacterial micromethod in Šula's medium, M. avium; type: cell-based
[15] = tested on: Klebsiella pneumoniae D 11750/08; assay: Antibacterial microdilution broth method, K. pneumoniae; conditions: K. pneumoniae D 11750/08; for MIC KP 24 h: 24 h incubation; for MIC KP 48 h: 48 h incubation
[16] = tested on: Candida krusei E28; assay: Antifungal microdilution broth method, C. krusei; type: cell-based; conditions: Pichia kudriavzevii
How it was run: as §1

[17] = 235/80, 168 h, 7 days incubation at 37 °C, read-out: MIC M. kansasii 235/80 7 d
[18] = 235/80, 336 h, 14 days incubation at 37 °C, read-out: MIC M. kansasii 235/80 14 d
[19] = 235/80, 504 h, 21 days incubation at 37 °C, read-out: MIC M. kansasii 235/80 21 d
[20] = 24 h incubation, read-out: MIC PA 24 h
[21] = 48 h incubation, read-out: MIC PA 48 h
[22] = 168 h, 7 days incubation at 37 °C, read-out: MIC M. kansasii 6509/96 7 d
[23] = 336 h, 14 days incubation at 37 °C, read-out: MIC M. kansasii 6509/96 14 d
[24] = 504 h, 21 days incubation at 37 °C, read-out: MIC M. kansasii 6509/96 21 d
[25] = 24 h incubation, read-out: MIC EF 24 h
[26] = 48 h incubation, read-out: MIC EF 48 h
[27] = 24 h incubation, read-out: MIC EC 24 h
[28] = 48 h incubation, read-out: MIC EC 48 h
[29] = 24 h incubation, read-out: MIC SE 24 h
[30] = 48 h incubation, read-out: MIC SE 48 h
[31] = 24 h incubation, read-out: MIC MRSA 24 h
[32] = 48 h incubation, read-out: MIC MRSA 48 h
[33] = 330/88, 336 h, 14 days incubation at 37 °C, read-out: MIC M. avium 330/88 14 d
[34] = 330/88, 504 h, 21 days incubation at 37 °C, read-out: MIC M. avium 330/88 21 d

| SMILES | MIC [1, 17] | MIC [1, 18] | MIC [1, 19] | MIC [2, 20] | MIC [2, 21] | MIC ([3]; 24 h, read-out: MIC CT 24 h) | MIC ([3]; 48 h, read-out: MIC CT 48 h) | MIC ([4]; 24 h, read-out: MIC LC 24 h) | MIC ([4]; 48 h, read-out: MIC LC 48 h) | MIC KP-E 24 h [5] | MIC KP-E 48 h [5] | MIC [6, 22] | MIC [6, 23] | MIC [6, 24] | MIC [7, 25] | MIC [7, 26] | MIC ([8]; 72 h, read-out: MIC TI 72 h) | MIC ([8]; 120 h, read-out: MIC TI 120 h) | MIC [9, 27] | MIC [9, 28] | also measured |
| --- | --- | --- | --- | --- | --- | --- | --- | --- | --- | --- | --- | --- | --- | --- | --- | --- | --- | --- | --- | --- | --- |
| O=C(O)c1ccc(N=Cc2cc([N+](=O)[O-])ccc2O)cc1 [1f, 4-[(2-Hydroxy-5-nitrobenzylidene)amino]benzoic acid] | 500 µM (≈ 143 µg/mL) | 500 µM (≈ 143 µg/mL) | 500 µM (≈ 143 µg/mL) | > 500 µM | > 500 µM | > 500 µM | > 500 µM | 500 µM (≈ 143 µg/mL) | 500 µM (≈ 143 µg/mL) | >500 µM | >500 µM | 500 µM (≈ 143 µg/mL) | 500 µM (≈ 143 µg/mL) | 500 µM (≈ 143 µg/mL) | 500 µM (≈ 143 µg/mL) | 500 µM (≈ 143 µg/mL) | 500 µM (≈ 143 µg/mL) | 500 µM (≈ 143 µg/mL) | > 500 µM | > 500 µM | MIC [10, 29]: 250 µM (≈ 71.6 µg/mL); MIC [10, 30]: 250 µM (≈ 71.6 µg/mL); MIC ([11]; 24 h, read-out: MIC CG 24 h): > 500 µM; MIC ([11]; 48 h, read-out: MIC CG 48 h): > 500 µM; MIC ([12]; 24 h, read-out: MIC TA 24 h): 500 µM (≈ 143 µg/mL); MIC ([12]; 48 h, read-out: MIC TA 48 h): 500 µM (≈ 143 µg/mL); MIC [13, 31]: 500 µM (≈ 143 µg/mL); MIC [13, 32]: 500 µM (≈ 143 µg/mL); MIC [14, 33]: 1000 µM (≈ 286 µg/mL); MIC [14, 34]: > 1000 µM; MIC KP 24 h [15]: >500 µM; MIC KP 48 h [15]: >500 µM; MIC ([16]; 24 h, read-out: MIC CK 24 h): > 500 µM; MIC ([16]; 48 h, read-out: MIC CK 48 h): > 500 µM |
| O=C(O)c1ccc(N=Cc2cc(I)ccc2O)cc1 [1e, 4-[(2-Hydroxy-5-iodobenzylidene)amino]benzoic acid] | 250 µM (≈ 91.8 µg/mL) | 250 µM (≈ 91.8 µg/mL) | 250 µM (≈ 91.8 µg/mL) | > 250 µM | > 250 µM | 125 µM (≈ 45.9 µg/mL) | 125 µM (≈ 45.9 µg/mL) | > 125 µM | > 125 µM | >250 µM | >250 µM | 250 µM (≈ 91.8 µg/mL) | 250 µM (≈ 91.8 µg/mL) | 500 µM (≈ 184 µg/mL) | > 250 µM | > 250 µM | 31.2 µM (≈ 11.5 µg/mL) | 31.2 µM (≈ 11.5 µg/mL) | > 250 µM | > 250 µM | MIC [10, 29]: 62.5 µM (≈ 22.9 µg/mL); MIC [10, 30]: 62.5 µM (≈ 22.9 µg/mL); MIC ([11]; 24 h, read-out: MIC CG 24 h): 31.2 µM (≈ 11.5 µg/mL); MIC ([11]; 48 h, read-out: MIC CG 48 h): 31.2 µM (≈ 11.5 µg/mL); MIC ([12]; 24 h, read-out: MIC TA 24 h): 62.5 µM (≈ 22.9 µg/mL); MIC ([12]; 48 h, read-out: MIC TA 48 h): 62.5 µM (≈ 22.9 µg/mL); MIC [13, 31]: 250 µM (≈ 91.8 µg/mL); MIC [13, 32]: 250 µM (≈ 91.8 µg/mL); MIC [14, 33]: 500 µM (≈ 184 µg/mL); MIC [14, 34]: 500 µM (≈ 184 µg/mL); MIC KP 24 h [15]: >250 µM; MIC KP 48 h [15]: >250 µM; MIC ([16]; 24 h, read-out: MIC CK 24 h): 62.5 µM (≈ 22.9 µg/mL); MIC ([16]; 48 h, read-out: MIC CK 48 h): 62.5 µM (≈ 22.9 µg/mL) |
| O=C(O)c1ccc(N=Cc2c(O)cccc2Cl)cc1 [1k, 4-[(2-Chloro-6-hydroxybenzylidene)amino]benzoic acid] | 250 µM (≈ 68.9 µg/mL) | 500 µM (≈ 138 µg/mL) | 500 µM (≈ 138 µg/mL) | > 500 µM | > 500 µM | 62.5 µM (≈ 17.2 µg/mL) | 125 µM (≈ 34.5 µg/mL) | > 125 µM | > 125 µM | >500 µM | >500 µM | 250 µM (≈ 68.9 µg/mL) | 250 µM (≈ 68.9 µg/mL) | 500 µM (≈ 138 µg/mL) | > 500 µM | > 500 µM | 125 µM (≈ 34.5 µg/mL) | 125 µM (≈ 34.5 µg/mL) | > 500 µM | > 500 µM | MIC [10, 29]: > 500 µM; MIC [10, 30]: > 500 µM; MIC ([11]; 24 h, read-out: MIC CG 24 h): 125 µM (≈ 34.5 µg/mL); MIC ([11]; 48 h, read-out: MIC CG 48 h): 125 µM (≈ 34.5 µg/mL); MIC ([12]; 24 h, read-out: MIC TA 24 h): 125 µM (≈ 34.5 µg/mL); MIC ([12]; 48 h, read-out: MIC TA 48 h): > 125 µM; MIC [13, 31]: > 500 µM; MIC [13, 32]: > 500 µM; MIC [14, 33]: 500 µM (≈ 138 µg/mL); MIC [14, 34]: 1000 µM (≈ 276 µg/mL); MIC KP 24 h [15]: >500 µM; MIC KP 48 h [15]: >500 µM; MIC ([16]; 24 h, read-out: MIC CK 24 h): 125 µM (≈ 34.5 µg/mL); MIC ([16]; 48 h, read-out: MIC CK 48 h): 250 µM (≈ 68.9 µg/mL) |
